Laboratory results reported in PubChem BioAssay AID342 (DTP/NCI, 2004).
Where “and” joins values, the source holds several entries; their conditions need not be identical. Equal entries are not always repeated.

Test system: Swiss mice, Sarcoma 180 sc, mean tumor weight T/C
Assay: NCI In Vivo Anticancer Drug Screen. Data for tumor model Sarcoma 180 (subcutaneous) in Swiss mice
Conditions: endpoint: mean tumor weight, higher = larger tumour
Method: The antitumor activity of compounds was measured in mice bearing transplantable tumors. Survival or tumor size were measured and the results are expressed as the measurement made in the treated group (T) divided by the measurement made in the vehicle treated control group (C). The tumor model used in this assay is Sarcoma 180 (subcutaneous) in Swiss mice

`CC1CN1C(=O)Nc1cccc2c(NC(=O)N3CC3C)cccc12` (stereo not drawn) was tested, and the T/C (dose: 9.5 mg/kg/injection, schedule: Q#A X014 (ip), vehicle: methylcellulose (MC)) was 66 % of control, the T/C (dose: 14.0 mg/kg/injection, schedule: Q#A X014 (ip), vehicle: methylcellulose (MC)) was 62 % of control and the T/C (dose: 20.5 mg/kg/injection, schedule: Q#A X014 (ip), vehicle: methylcellulose (MC)) was 31 % of control. The T/C (dose: 21.0 mg/kg/injection, schedule: Q#A X014 (ip), vehicle: methylcellulose (MC)) was 35 % of control, the T/C (dose: 31.5 mg/kg/injection, schedule: Q#A X014 (ip), vehicle: methylcellulose (MC)) was 23 % of control and the T/C (dose: 35.0 mg/kg/injection, schedule: Q01DX007 (ip), vehicle: carboxymethylcellulose (CMC)) was 50 % of control. For the same compound, the T/C (dose: 35.0 mg/kg/injection, schedule: Q01DX007 (ip), vehicle: saline) was 53 % of control, the T/C (dose: 47.0 mg/kg/injection, schedule: Q#A X014 (ip), vehicle: methylcellulose (MC)) was 7 % of control and the T/C (dose: 53.0 mg/kg/injection, schedule: Q01DX007 (ip), vehicle: saline) was 46 % of control. For the same compound, the T/C (dose: 80.0 mg/kg/injection, schedule: Q01DX007 (ip), vehicle: saline) was 35 % of control.
For `COC12C(COC(N)=O)C3=C(C(=O)C(C)=C(N)C3=O)N1CC1C2N1C` (stereo not drawn), the T/C (dose: 0.62 mg/kg/injection, schedule: Q#A X014 (ip), vehicle: carboxymethylcellulose (CMC)) was 62 % of control, the T/C (dose: 1.25 mg/kg/injection, schedule: Q#A X014 (ip), vehicle: carboxymethylcellulose (CMC)) was 123 % of control and the T/C (dose: 7.5 mg/kg/injection, schedule: Q#A X014 (ip), vehicle: carboxymethylcellulose (CMC)) was 65 % of control. The T/C (dose: 15.0 mg/kg/injection, schedule: Q#A X014 (ip), vehicle: carboxymethylcellulose (CMC)) was 6 % of control and 16 % of control and 25 % of control and the T/C (dose: 20.0 mg/kg/injection, schedule: Q#A X014 (ip), vehicle: carboxymethylcellulose (CMC)) was 2 % of control.
With `CC1CN(C(=O)CCl)c2ccccc2N1C(=O)CCl` (stereo not drawn) the T/C (dose: 2.0 mg/kg/injection, schedule: Q01DX007 (ip), vehicle: carboxymethylcellulose (CMC)) was 121 % of control and the T/C (dose: 4.0 mg/kg/injection, schedule: Q01DX007 (ip), vehicle: carboxymethylcellulose (CMC)) was 114 % of control.
For `O=C(Nc1ccc(N=Nc2ccc(S(=O)(=O)O)cc2)cc1)c1ccc(N=Nc2c(O)ccc3cc(S(=O)(=O)O)ccc23)cc1`, the T/C (dose: 12.5 mg/kg/injection, schedule: Q01DX007 (ip), vehicle: water) was 103 % of control, the T/C (dose: 25.0 mg/kg/injection, schedule: Q01DX007 (ip), vehicle: water) was 84 % of control and the T/C (dose: 50.0 mg/kg/injection, schedule: Q01DX007 (ip), vehicle: water) was 67 % of control.
`CS(=O)(=O)OCCCCCOS(C)(=O)=O` was tested, and the T/C (dose: 16.5 mg/kg/injection, schedule: Q#A X014 (ip), vehicle: methylcellulose (MC)) was 54 % of control and 65 % of control, the T/C (dose: 37.5 mg/kg/injection, schedule: Q#A X014 (ip), vehicle: methylcellulose (MC)) was 54 % of control and the T/C (dose: 56.5 mg/kg/injection, schedule: Q#A X014 (ip), vehicle: methylcellulose (MC)) was 9 % of control.
For `CC(NC(=O)C1(N)CCCC1)C(=O)O` (stereo not drawn), the T/C (dose: 25.0 mg/kg/injection, schedule: Q01DX007 (ip), vehicle: carboxymethylcellulose (CMC)) was 91 % of control, the T/C (dose: 100.0 mg/kg/injection, schedule: Q01DX007 (ip), vehicle: carboxymethylcellulose (CMC)) was 21 % of control and the T/C (dose: 222.0 mg/kg/injection, schedule: Q01DX007 (ip), vehicle: steriod suspending solution) was 36 % of control. The T/C (dose: 333.0 mg/kg/injection, schedule: Q01DX007 (ip), vehicle: steriod suspending solution) was 25 % of control.
`CN=C(N)/N=C(\N)Nc1cc2ccccc2c2ccccc12` was tested, and the T/C (dose: 1.0 mg/kg/injection, schedule: Q01DX007 (ip), vehicle: acid diluted with saline) was 89 % of control, the T/C (dose: 2.0 mg/kg/injection, schedule: Q01DX007 (ip), vehicle: acid diluted with saline) was 93 % of control and the T/C (dose: 4.0 mg/kg/injection, schedule: Q01DX007 (ip), vehicle: acid diluted with saline) was 92 % of control.
`CN(CC(=O)O)C(=N)N` was tested, and the T/C (dose: 1500.0 mg/kg/injection, schedule: Q#A X014 (ip), vehicle: water) was 92 % of control and the T/C (dose: 2500.0 mg/kg/injection, schedule: Q#A X014 (ip), vehicle: water) was 74 % of control.
In the case of `C[C@@H]1CC2=CC(=O)C=C[C@]2(C)[C@H]2CC[C@@]3(C)[C@@H](CC[C@]3(C)O)[C@H]12`, the T/C (dose: 111.0 mg/kg/injection, schedule: Q01DX007 (sc), vehicle: steriod suspending solution) is reported as 61 % of control and 72 % of control, the T/C (dose: 167.0 mg/kg/injection, schedule: Q01DX007 (sc), vehicle: steriod suspending solution) is reported as 43 % of control and 62 % of control and the T/C (dose: 250.0 mg/kg/injection, schedule: Q01DX007 (sc), vehicle: steriod suspending solution) is reported as 57 % of control and 76 % of control. For the same compound, the T/C (dose: 375.0 mg/kg/injection, schedule: Q01DX007 (sc), vehicle: steriod suspending solution) was 38 % of control and 42 % of control and 55 % of control and the T/C (dose: 750.0 mg/kg/injection, schedule: Q01DX007 (sc), vehicle: steriod suspending solution) was 47 % of control and 69 % of control.
For `CC(=O)[C@H]1CC[C@H]2[C@@H]3CCC4=CC(=O)[C@H](C)C[C@]4(C)[C@H]3C(=O)C[C@]12C`, the T/C (dose: 50.0 mg/kg/injection, schedule: Q#A X014 (oral), vehicle: steriod suspending solution) was 97 % of control, the T/C (dose: 125.0 mg/kg/injection, schedule: Q#A X014 (oral), vehicle: steriod suspending solution) was 68 % of control and the T/C (dose: 250.0 mg/kg/injection, schedule: Q#A X014 (oral), vehicle: steriod suspending solution) was 63 % of control.
For `NNC(=O)c1nsnc1N`, the T/C (dose: 75.0 mg/kg/injection, schedule: Q01DX007 (ip), vehicle: carboxymethylcellulose (CMC)) was 97 % of control.
`O=c1[nH]c(=O)c2n[nH]nc2[nH]1` was tested, and the T/C (dose: 0.25 mg/kg/injection, schedule: Q#A X014 (ip), vehicle: carboxymethylcellulose (CMC)) was 122 % of control, the T/C (dose: 0.5 mg/kg/injection, schedule: Q#A X014 (ip), vehicle: carboxymethylcellulose (CMC)) was 102 % of control and the T/C (dose: 2.0 mg/kg/injection, schedule: Q#A X014 (ip), vehicle: carboxymethylcellulose (CMC)) was 114 % of control. For the same compound, the T/C (dose: 86.28 mg/kg/injection, schedule: Q01DX007 (ip), vehicle: carboxymethylcellulose (CMC)) was 68 % of control, the T/C (dose: 172.57 mg/kg/injection, schedule: Q01DX007 (ip), vehicle: carboxymethylcellulose (CMC)) was 49 % of control and the T/C (dose: 345.15 mg/kg/injection, schedule: Q01DX007 (ip), vehicle: carboxymethylcellulose (CMC)) was 102 % of control. The T/C (dose: 690.3 mg/kg/injection, schedule: Q01DX007 (ip), vehicle: carboxymethylcellulose (CMC)) was 51 % of control.
For `CC(=O)[C@H]1CC[C@H]2[C@@H]3C[C@H](C)C4=CC(=O)CC[C@]4(C)[C@H]3C(=O)C[C@]12C`, the T/C (dose: 25.0 mg/kg/injection, schedule: Q#A X014 (oral), vehicle: steriod suspending solution) was 72 % of control, the T/C (dose: 62.5 mg/kg/injection, schedule: Q#A X014 (oral), vehicle: steriod suspending solution) was 55 % of control and the T/C (dose: 110.0 mg/kg/injection, schedule: Q#A X014 (oral), vehicle: steriod suspending solution) was 86 % of control.
For `CCCC(=O)OCC1OC(n2cnc3c(=S)nc[nH]c32)C(OC(=O)CCC)C1OC(=O)CCC` (stereo not drawn), the T/C (dose: 250.0 mg/kg/injection, schedule: Q01DX007 (ip), vehicle: carboxymethylcellulose (CMC)) was 36 % of control.
With `Cc1cc2nc3c(=O)[nH]c(=O)nc-3n(CCO)c2cc1C` the T/C (dose: 60.0 mg/kg/injection, schedule: Q#A X014 (ip), vehicle: carboxymethylcellulose (CMC)) was 78 % of control, the T/C (dose: 120.0 mg/kg/injection, schedule: Q#A X014 (ip), vehicle: carboxymethylcellulose (CMC)) was 77 % of control and the T/C (dose: 240.0 mg/kg/injection, schedule: Q#A X014 (ip), vehicle: carboxymethylcellulose (CMC)) was 76 % of control. For the same compound, the T/C (dose: 384.0 mg/kg/injection, schedule: Q01DX007 (ip), vehicle: carboxymethylcellulose (CMC)) was 61 % of control, the T/C (dose: 480.0 mg/kg/injection, schedule: Q01DX007 (ip), vehicle: carboxymethylcellulose (CMC)) was 62 % of control and the T/C (dose: 480.0 mg/kg/injection, schedule: Q#A X014 (ip), vehicle: carboxymethylcellulose (CMC)) was 40 % of control. The T/C (dose: 640.0 mg/kg/injection, schedule: Q01DX007 (ip), vehicle: carboxymethylcellulose (CMC)) was 82 % of control and the T/C (dose: 960.0 mg/kg/injection, schedule: Q01DX007 (ip), vehicle: carboxymethylcellulose (CMC)) was 66 % of control.
For `O=S(=O)(O)c1cccnc1`, the T/C (dose: 17.47 mg/kg/injection, schedule: Q#A X014 (ip), vehicle: carboxymethylcellulose (CMC)) was 70 % of control, the T/C (dose: 31.25 mg/kg/injection, schedule: Q#A X014 (ip), vehicle: carboxymethylcellulose (CMC)) was 64 % of control and the T/C (dose: 34.94 mg/kg/injection, schedule: Q#A X014 (ip), vehicle: carboxymethylcellulose (CMC)) was 80 % of control. The T/C (dose: 62.5 mg/kg/injection, schedule: Q#A X014 (ip), vehicle: carboxymethylcellulose (CMC)) was 105 % of control, the T/C (dose: 69.87 mg/kg/injection, schedule: Q#A X014 (ip), vehicle: carboxymethylcellulose (CMC)) was 89 % of control and the T/C (dose: 125.0 mg/kg/injection, schedule: Q#A X014 (ip), vehicle: carboxymethylcellulose (CMC)) was 63 % of control. For the same compound, the T/C (dose: 139.75 mg/kg/injection, schedule: Q#A X014 (ip), vehicle: carboxymethylcellulose (CMC)) was 97 % of control and the T/C (dose: 250.0 mg/kg/injection, schedule: Q#A X014 (ip), vehicle: carboxymethylcellulose (CMC)) was 124 % of control.
